The source of these data is patent publication US8394952B2 (Vertex Pharmaceuticals Incorporated, priority 2006, dated 2013).

Some results are limits rather than exact numbers.

In this assay the target is Plk1 (Homo sapiens, UniProt P53350). As to the kind of experiment: biochemical.
Plk1, sequence (P53350 20-338): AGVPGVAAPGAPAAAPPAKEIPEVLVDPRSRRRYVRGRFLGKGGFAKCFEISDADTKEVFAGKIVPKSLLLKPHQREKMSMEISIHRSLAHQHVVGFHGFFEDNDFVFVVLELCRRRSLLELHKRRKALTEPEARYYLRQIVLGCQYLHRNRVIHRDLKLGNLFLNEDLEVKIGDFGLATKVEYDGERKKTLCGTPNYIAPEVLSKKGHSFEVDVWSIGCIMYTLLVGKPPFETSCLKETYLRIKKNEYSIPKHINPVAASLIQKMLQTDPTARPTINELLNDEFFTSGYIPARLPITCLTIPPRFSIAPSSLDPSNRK

As for `COc1cc(C(=O)N[C@H]2CC[C@H](O)CC2)ccc1Nc1ncc2c(n1)N(C1CCCC1)CC1(CC1)C(=O)N2C` [Compound I-251, 4-(9′-cyclopentyl-5′-methyl-6′-oxo-5′,6′,8′,9′-tetrahydrospiro[cyclopropane-1,7′-pyrimido[4,5-b][1,4]diazepine]-2′-ylamino)-N-((1R,4R)-4-hydroxycyclohexyl)-3-methoxybenzamide], the Ki (commonly a dissociation constant, usually derived from enzyme kinetics or from competition with a known ligand) was below 10 nM. `COc1cc(C(=O)NC[C@@H]2CCCC[C@@H]2O)ccc1Nc1ncc2c(n1)N(C1CCCC1)CC1(CC1)C(=O)N2C` [Compound I-252, 4-(9′-cyclopentyl-5′-methyl-6′-oxo-5′,6′,8′,9′-tetrahydrospiro[cyclopropane-1,7′-pyrimido[4,5-b][1,4]diazepine]-2′-ylamino)-N-(((1S,2S)-2-hydroxycyclohexyl)methyl)-3-methoxybenzamide] came in with a Ki below 10 nM. For `COc1cc(C(=O)NN2CCCC2)ccc1Nc1ncc2c(n1)N(C1CCCC1)CC1(CC1)C(=O)N2C` [Compound I-253, 4-(9′-cyclopentyl-5′-methyl-6′-oxo-5′,6′,8′,9′-tetrahydrospiro[cyclopropane-1,7′-pyrimido[4,5-b][1,4]diazepine]-2′-ylamino)-3-methoxy-N-(pyrrolidin-1-yl)benzamide], the Ki is below 10 nM. In turn, `COc1cc(C(=O)NC2(CO)CCCC2)ccc1Nc1ncc2c(n1)N(C1CCCC1)CC(C)(C)C(=O)N2C` [Compound I-254, 4-(9-cyclopentyl-5,7,7-trimethyl-6-oxo-6,7,8,9-tetrahydro-5H-pyrimido[4,5-b][1,4]diazepin-2-ylamino)-N-(1-(hydroxymethyl)cyclopentyl)-3-methoxybenzamide] displayed a Ki below 10 nM. The compound `COc1cc(C(=O)NCc2ccccn2)ccc1Nc1ncc2c(n1)N(C1CCCC1)CC(C)(C)C(=O)N2C` [Compound I-255, 4-(9-cyclopentyl-5,7,7-trimethyl-6-oxo-6,7,8,9-tetrahydro-5H-pyrimido[4,5-b][1,4]diazepin-2-ylamino)-3-methoxy-N-(pyridin-2-ylmethyl)benzamide] returned a Ki below 10 nM.

Compound `COc1cc(C2=NCCN2)ccc1Nc1ncc2c(n1)N(C1CCCC1)CC(C)(C)C(=O)N2C` [Compound I-256, 9-cyclopentyl-2-(4-(4,5-dihydro-1H-imidazol-2-yl)-2-methoxyphenylamino)-5,7,7-trimethyl-8,9-dihydro-5H-pyrimido[4,5-b][1,4]diazepin-6(7H)-one] registered a Ki below 10 nM. Take `COc1cc(C2=NCC(C)(C)N2)ccc1Nc1ncc2c(n1)N(C1CCCC1)CC(C)(C)C(=O)N2C` [Compound I-257, 9-cyclopentyl-2-(4-(5,5-dimethyl-4,5-dihydro-1H-imidazol-2-yl)-2-methoxyphenylamino)-5,7,7-trimethyl-8,9-dihydro-5H-pyrimido[4,5-b][1,4]diazepin-6(7H)-one]: the Ki is below 10 nM. On to `COc1cc(C(=O)N[C@@H]2CC[C@@H](O)C2)ccc1Nc1ncc2c(n1)N(C1CCCC1)CC(C)(C)C(=O)N2C` [Compound I-258], for which the Ki was below 10 nM.

The compound `COc1cc(C(=O)NC[C@@H]2CC[C@@H](O)C2)ccc1Nc1ncc2c(n1)N(C1CCCC1)CC(C)(C)C(=O)N2C` [Compound I-259, 4-(9-cyclopentyl-5,7,7-trimethyl-6-oxo-6,7,8,9-tetrahydro-5H-pyrimido[4,5-b][1,4]diazepin-2-ylamino)-N-((1R,3R)-3-(hydroxycyclopentyl)methyl)-3-methoxybenzamide] showed a Ki below 10 nM.

With `COc1cc(C(=O)N[C@@H]2CC[C@@H](CO)C2)ccc1Nc1ncc2c(n1)N(C1CCCC1)CC(C)(C)C(=O)N2C` [Compound I-260, 4-(9-cyclopentyl-5,7,7-trimethyl-6-oxo-6,7,8,9-tetrahydro-5H-pyrimido[4,5-b][1,4]diazepin-2-ylamino)-N-((1R,3R)-3-(hydroxymethyl)cyclopentyl)-3-methoxybenzamide], the Ki was below 10 nM. The value for `COc1ccc(NC(=O)c2ccc(Nc3ncc4c(n3)N(C3CCCC3)CC(C)(C)C(=O)N4C)c(OC)c2)cc1` [Compound I-261, 4-(9-cyclopentyl-5,7,7-trimethyl-6-oxo-6,7,8,9-tetrahydro-5H-pyrimido[4,5-b][1,4]diazepin-2-ylamino)-3-methoxy-N-(4-methoxyphenyl)benzamide] was below 10 nM; that for `COc1cc(C(=O)NCCCO)ccc1Nc1ncc2c(n1)N(C1CCCC1)CC1(CC1)C(=O)N2C` [Compound I-262, 4-(9′-cyclopentyl-5′-methyl-6′-oxo-5′,6′,8′,9′-tetrahydrospiro[cyclopropane-1,7′-pyrimido[4,5-b][1,4]diazepine]-2′-ylamino)-N-(3-hydroxypropyl)-3-methoxybenzamide] was below 10 nM; that for `COc1cc(C(=O)NC(C)C)ccc1Nc1ncc2c(n1)N(C1CCCC1)CC1(CC1)C(=O)N2C` [Compound I-263, 4-(9′-cyclopentyl-5′-methyl-6′-oxo-5′,6′,8′,9′-tetrahydrospiro[cyclopropane-1,7′-pyrimido[4,5-b][1,4]diazepine]-2′-ylamino)-N-isopropyl-3-methoxybenzamide] was below 10 nM. `COc1cc(C(=O)NCCO)ccc1Nc1ncc2c(n1)N(C1CCCC1)CC(C)(C)C(=O)N2C` [Compound I-264, 4-(9-cyclopentyl-5,7,7-trimethyl-6-oxo-6,7,8,9-tetrahydro-5H-pyrimido[4,5-b][1,4]diazepin-2-ylamino)-N-(2-hydroxyethyl)-3-methoxybenzamide] registered a Ki below 10 nM.

Consider `COc1cc(C(=O)N[C@@H](C)CO)ccc1Nc1ncc2c(n1)N(C1CCCC1)CC(C)(C)C(=O)N2C` [Compound I-265], for which the Ki was below 10 nM. The value for `COc1cc(C(=O)NC2(CO)CC2)ccc1Nc1ncc2c(n1)N(C1CCCC1)CC(C)(C)C(=O)N2C` [Compound I-266] was below 10 nM; that for `COc1cc(C(=O)N[C@H]2CC[C@@H](F)CC2)ccc1Nc1ncc2c(n1)N(C1CCCC1)CC(C)(C)C(=O)N2C` [Compound I-267, 4-(9-cyclopentyl-5,7,7-trimethyl-6-oxo-6,7,8,9-tetrahydro-5H-pyrimido[4,5-b][1,4]diazepin-2-ylamino)-N-((1S,4S)-4-fluorocylohexyl)-3-methoxybenzamide] was below 10 nM. For `COc1cc(C(=O)N[C@@H]2CCCC[C@H]2O)ccc1Nc1ncc2c(n1)N(C1CCCC1)CC(C)(C)C(=O)N2C` [Compound I-268, 4-(9-cyclopentyl-5,7,7-trimethyl-6-oxo-6,7,8,9-tetrahydro-5H-pyrimido[4,5-b][1,4]diazepin-2-ylamino)-N-((1R,2R)-2-hydroxycyclohexyl)-3-methoxybenzamide], the Ki is below 10 nM. `COc1cc(C(=O)NC2CC(F)(F)C2)ccc1Nc1ncc2c(n1)N(C1CCCC1)CC1(CC1)C(=O)N2C` [Compound I-269, 4-(9′-cyclopentyl-5′-methyl-6′-oxo-5′,6′,8′,9′-tetrahydrospiro[cyclopropane-1,7′-pyrimido[4,5-b][1,4]diazepine]-2′-ylamino)-N-(3,3-difluorocyclobutyl)-3-methoxybenzamide] displayed a Ki below 10 nM. Compound `COc1cc(C(=O)NC[C@H](C)O)ccc1Nc1ncc2c(n1)N(C1CCCC1)CC(C)(C)C(=O)N2C` [Compound I-270, (S)-4-(9-cyclopentyl-5,7,7-trimethyl-6-oxo-6,7,8,9-tetrahydro-5H-pyrimido[4,5-b][1,4]diazepin-2-ylamino)-N-(2-hydroxypropyl)-3-methoxybenzamide] registered a Ki below 10 nM. As for `COc1cc(C(=O)NC(C)(C)CO)ccc1Nc1ncc2c(n1)N(C1CCCC1)CC1(CC1)C(=O)N2C` [Compound I-271, 4-(9′-cyclopentyl-5′-methyl-6′-oxo-5′,6′,8′,9′-tetrahydrospiro[cyclopropane-1,7′-pyrimido[4,5-b][1,4]diazepine]-2′-ylamino)-N-(1-hydroxy-2-methylpropan-2-yl)-3-methoxybenzamide], the Ki is below 10 nM. The value for `COc1cc(C(=O)N[C@@H]2CCC[C@H]2O)ccc1Nc1ncc2c(n1)N(C1CCCC1)CC1(CC1)C(=O)N2C` [Compound I-272, 4-(9′-cyclopentyl-5′-methyl-6′-oxo-5′,6′,8′,9′-tetrahydrospiro[cyclopropane-1,7′-pyrimido[4,5-b][1,4]diazepine]-2′-ylamino)-N-((1R,2R)-2-hydroxycyclopentyl)-3-methoxybenzamide] was below 10 nM; that for `COc1cc(C(=O)NCCCOC(C)=O)ccc1Nc1ncc2c(n1)N(C1CCCC1)CC(C)(C)C(=O)N2C` [Compound I-273, 3-(4-(9-cyclopentyl-5,7,7-trimethyl-6-oxo-6,7,8,9-tetrahydro-5H-pyrimido[4,5-b][1,4]diazepin-2-ylamino)-3-methoxybenzamido)propyl acetate] was below 10 nM. The value for `COc1cc(C(=O)NCC(O)C(F)(F)F)ccc1Nc1ncc2c(n1)N(C1CCCC1)CC(C)(C)C(=O)N2C` (stereo not drawn) [Compound I-278, 4-(9-cyclopentyl-5,7,7-trimethyl-6-oxo-6,7,8,9-tetrahydro-5H-pyrimido[4,5-b][1,4]diazepin-2-ylamino)-3-methoxy-N-(3,3,3-trifluoro-2-hydroxypropyl)benzamide] was below 10 nM. The value for `COc1cc(C(=O)NCCF)ccc1Nc1ncc2c(n1)N(C1CCCC1)CC(C)(C)C(=O)N2C` [Compound I-279, 4-(9-cyclopentyl-5,7,7-trimethyl-6-oxo-6,7,8,9-tetrahydro-5H-pyrimido[4,5-b][1,4]diazepin-2-ylamino)-N-(2-fluoroethyl)-3-methoxybenzamide] was below 10 nM; that for `COc1cc(C(=O)N[C@H]2CC[C@H](OC(C)=O)CC2)ccc1Nc1ncc2c(n1)N(C1CCCC1)CC(C)(C)C(=O)N2C` [Compound I-280, (1r,4r)-4-(4-(9-cyclopentyl-5,7,7-trimethyl-6-oxo-6,7,8,9-tetrahydro-5H-pyrimido[4,5-b][1,4]diazepin-2-ylamino)-3-methoxybenzamido)cyclohexyl acetate] was below 10 nM.

`COc1cc(C(=O)N[C@@H]2CC[C@@H](O)C2)ccc1Nc1ncc2c(n1)N(C1CCCC1)CC1(CC1)C(=O)N2C` [Compound I-282, 4-(9′-cyclopentyl-5′-methyl-6′-oxo-5′,6′,8′,9′-tetrahydrospiro[cyclopropane-1,7′-pyrimido[4,5-b][1,4]diazepine]-2′-ylamino)-N-((1R,3R)-3-hydroxycyclopentyl)-3-methoxybenzamide] had a Ki below 10 nM.
